Source: US20240245677A1, “SELECTED COMPOUNDS FOR TARGETED DEGRADATION OF BRD9” (C4 THERAPEUTICS, INC., priority 2021, published 2024)
In brackets after ≈: the same amount, converted by molar mass.

Assays:
[1] = Approximate solubility in solvents at 25° C. and 50° C. (visual observation); type: physicochemical; conditions: thermodynamic from solid, 25° C., target conc. = 250 mg/mL
Description: Max. volume of each solvent added was 1 mL. Approximate solubility was determined by visual observation.
Max volume of each solvent added was 1 mL. Approximate solubility was determined by visual observation.

[2] = Salt and cocrystal evaluation (equilibration, cooling, slow evaporation, anti-solvent, re-equilibration); type: physicochemical
Description: Compound 1 was investigated with a variety of salts to find additional morphic forms and cocrystals. This salt and cocrystal investigation for Compound 1 was performed with free form Pattern A*. This is a hydrate with medium crystallinity. […] Acetone, methanol, ethyl acetate and acetonitrile were used as evaluation solvents. Five crystallization methods, including equilibration, fast cooling, slow evaporation, addition of anti-solvent and re-equilibration, were applied to obtain salt or cocrystal hits. From these investigations only one crystalline form—a urea cocrystal Form P was identified.
Based on the pKa of free form, 14 acids were selected for evaluation in acetone and methanol. About 30 mg of Compound 1 free form and 1 or 2 equivalents of salt forming agents 5 were weighed into 2 mL glass vials. 200 μL of acetone or methanol was added. […] To avoid degradation, experiments with strong acids were conducted without heating. Samples were stirred at 25° C. for 2 days. Obtained suspensions were taken out and centrifuged. Then wet cakes were dried at 25° C. under vacuum for 2 h. Obtained solids were analyzed by XRPD and results were summarized.
To obtain crystalline salts, another two solvents including ethyl acetate and acetonitrile were added as solvents. About 30 mg of Compound 1 free form and 1 or 2 equivalents of salt forming agents were weighed into 2 mL glass vials. 400 μL of ethyl acetate or 300 μL of acetonitrile was added. Samples were stirred at 25° C. for 2 days. Obtained solids were analyzed by XRPD and results were summarized.
Nicotinamide and urea were selected as crystallization agents for cocrystal evaluation. Acetone, methanol, ethyl acetate and acetonitrile were used as solvents. About 30 mg of Compound 1 free form, and 1 equivalent of crystallization agent were weighed into 2 mL glass vials. […] of acetone, 200 μL of methanol, […] of ethyl acetate or 300 µL of acetonitrile was added. Obtained suspensions were stirred at 25° C. for 2 days. Obtained solids were analyzed by XRPD and results were summarized.
Supernatants obtained from equilibration experiments were cooled to 5° C. and stirred at 5° C. for 3 days. Then obtained suspensions were centrifuged at 5° C. and solids were dried under vacuum at 25° C. for 2 h. No crystalline salt was obtained.
No crystalline hits were obtained.
Amorphous salts from above experiments were re-equilibrated at 25° C. for crystallization. No crystalline salt hits were obtained.

G402 tumor xenografts = test: Antitumor activity in G402 malignant rhabdoid tumor xenograft model; type: in vivo, mouse; conditions: for TGI: day 21
Description: To evaluate the efficacy potential of Compound 1 in the malignant rhabdoid tumor setting, BALB/c nude female mice bearing G402 tumor xenografts (WuXi AppTec, Shanghai, China) were treated with a daily regimen of escalating doses of Compound 1 (10 mg/kg, 30 mg/kg, or 50 mg/kg) or vehicle via oral gavage for 21 days (FIG. 3). Compound 1 was tolerated in this study with all mice except two losing no greater than 8% body weight (FIG. 4). […] One mouse in the 50 mg/kg QD group also experienced accumulating body weight loss to end the study at −17.3% but was never taken off study. […] TGI and One-way ANOVA analyses were performed on day 21, the last day all animals were on study.
The G402 tumor cells were maintained in vitro in McCoy's 5a medium supplemented with 10% fetal bovine serum and 1% Penicillin-Streptomycin at 37° C. in an atmosphere of 5% CO2 in air. The tumor cells were routinely subcultured twice weekly. The cells growing in an exponential growth phase were harvested and counted for tumor inoculation.
Each mouse was inoculated subcutaneously at the right flank with G402 cells (10×10^6) in 0.2 mL of PBS supplemented with Matrigel (PBS:Matrigel=1:1) for tumor development. For efficacy part, the treatments were started when the average tumor volume reaches 175 mm^3.

[3] = Crystallization by addition of anti-solvent; type: physicochemical; conditions: for Comments: form after seeding: add Pattern G as seeds, slurry for 5 days
Description: Based on approximate solubility results, about 20 mg of Compound 1 free form Pattern E was dissolved in the minimal amount of good solvent. Anti-solvent was added into the obtained solutions slowly. Precipitates were collected by centrifuged. The solid part (wet cake) were investigated by XRPD.

COc1cc(-c2cn(C)c(=O)c(C)c2C)cc(OC)c1CN1CC[C@H](N2CCN(c3ccc(N[C@H]4CCC(=O)NC4=O)cc3F)CC2)C(F)(F)C1 [Compound 1, (S)-3-((4-(4-((S)-1-(2,6-dimethoxy-4-(1,4,5-trimethyl-6-oxo-1,6-dihydropyridin-3-yl)benzyl)-3,3-difluoropiperidin-4-yl)piperazin-1-yl)-3-fluorophenyl)amino)-piperidine-2,6-dione]
Solubility ([1]; organic solvent or mixture, Acetone): 17000 to 25000 µg/mL (≈ 23.9 to 35.2 mM) | Solubility ([1]; organic solvent or mixture, Acetonitrile): 6000 to 7000 µg/mL (≈ 8.44 to 9.85 mM) | Solubility ([1]; organic solvent or mixture, Ethanol): 5000 to 6000 µg/mL (≈ 7.03 to 8.44 mM) | Solubility ([1]; organic solvent or mixture, Ethyl acetate): 5000 to 6000 µg/mL (≈ 7.03 to 8.44 mM) | Solubility ([1]; organic solvent or mixture, Heptane): < 5000 µg/mL | Solubility ([1]; organic solvent or mixture, MTBE (Methyl tert-butyl ether)): < 5000 µg/mL | Solubility ([1]; organic solvent or mixture, Methanol): 10000 to 17000 µg/mL (≈ 14.1 to 23.9 mM) | Solubility ([1]; organic solvent or mixture, Methanol/water (v:v = 95:5)): 8000 to 13000 µg/mL (≈ 11.3 to 18.3 mM) | Solubility ([1]; organic solvent or mixture, THF (Tetrahydrofuran)): > 250000 µg/mL | Solubility ([1]; Water): < 5000 µg/mL | Results (re-equilibration for 8 days) Acetone ([2]; 1.05 equiv. Sulfuric acid, Acetone, +200 μL EA): Free form Pattern B* | Results (re-equilibration for 8 days) Acetone ([2]; 2.10 equiv. Hydrochloric acid, Acetone, +100 μL ACN): +100 μL ACN, Gel-like sample | Results (re-equilibration for 8 days) Acetone ([2]; 2.10 equiv. Methanesulfonic acid, Acetone, +200 μL EA): +200 μL EA, Gel-like sample | Results (anti-solvent addition) A Acetone ([2]; 2.10 equiv. Trifluoroacetic acid, Acetone, +400 μL MTBE): Clear solution | Results (anti-solvent addition) C EA, XRPD ([2]; 2.10 equiv. Trifluoroacetic acid, EA, +200 μL MTBE, suspension, AF = Amorphous form): XRPD: AF* | Results (cooling) A Acetone ([2]; cooled to 5° C., 3 days, 1.05 equiv. Fumaric acid, Acetone): Clear Solution | Results (cooling) A Acetone ([2]; cooled to 5° C., 3 days, 1.05 equiv. Sulfuric acid, Acetone): Clear Solution | Results (cooling) B MeOH ([2]; cooled to 5° C., 3 days, 1.05 equiv. Sulfuric acid): Clear Solution | Results (cooling) B MeOH ([2]; cooled to 5° C., 3 days, 2.10 equiv. Citric acid): Clear Solution | Results (cooling) A Acetone ([2]; cooled to 5° C., 3 days, 2.10 equiv. Fumaric acid, Acetone): Clear Solution | Results (cooling) A Acetone ([2]; cooled to 5° C., 3 days, 2.10 equiv. Hydrochloric acid, Acetone): Clear Solution | Results (cooling) B MeOH ([2]; cooled to 5° C., 3 days, 2.10 equiv. Hydrochloric acid): Clear Solution | Results (cooling) A Acetone ([2]; cooled to 5° C., 3 days, 2.10 equiv. L-Malic acid, Acetone): Clear Solution | Results (cooling) B MeOH ([2]; cooled to 5° C., 3 days, 2.10 equiv. Maleic acid): Clear Solution | Results (cooling) B MeOH ([2]; cooled to 5° C., 3 days, 2.10 equiv. Methanesulfonic acid): Clear Solution | Results (cooling) A Acetone ([2]; cooled to 5° C., 3 days, 2.10 equiv. Succinic acid, Acetone): Clear Solution | Results (cooling) A Acetone ([2]; cooled to 5° C., 3 days, 2.10 equiv. Sulfuric acid, Acetone): Clear Solution | Results (cooling) B MeOH ([2]; cooled to 5° C., 3 days, 2.10 equiv. Sulfuric acid): Clear Solution | Results (cooling) D ACN ([2]; cooled to 5° C., 3 days, 2.10 equiv. Trifluoroacetic acid, ACN): Clear Solution | Results (cooling) A Acetone ([2]; cooled to 5° C., 3 days, 2.10 equiv. Trifluoroacetic acid, Acetone): Clear Solution | Results (cooling) C EA ([2]; cooled to 5° C., 3 days, 2.10 equiv. Trifluoroacetic acid, EA): Clear Solution | Results (cooling) B MeOH ([2]; cooled to 5° C., 3 days, 2.10 equiv. Trifluoroacetic acid): Clear Solution | Results (cooling) B MeOH ([2]; cooled to 5° C., 3 days, 2.10 equiv. p-Toluenesulfonic acid): Clear Solution | Results A Acetone ([2]; equilibration, 1.05 equiv. Fumaric acid, Acetone): Clear solution | Results A Acetone ([2]; equilibration, 1.05 equiv. Nicotinamide, Acetone): Clear solution | Results A Acetone ([2]; equilibration, 1.05 equiv. Urea, Acetone): Clear solution | Results A Acetone ([2]; equilibration, 2.10 equiv. Adipic acid, Acetone): Clear solution | Results A Acetone ([2]; equilibration, 2.10 equiv. Fumaric acid, Acetone): Clear solution | Results A Acetone ([2]; equilibration, 2.10 equiv. L-Malic acid, Acetone): Clear solution | Results C EA ([2]; equilibration, 2.10 equiv. Methanesulfonic acid, EA, AF = Amorphous form): AF MSA salt* | Results A Acetone ([2]; equilibration, 2.10 equiv. Succinic acid, Acetone): Clear solution | Results D ACN ([2]; equilibration, 2.10 equiv. Trifluoroacetic acid, ACN): Clear solution | Results A Acetone ([2]; equilibration, 2.10 equiv. Trifluoroacetic acid, Acetone): Clear solution | Results C EA ([2]; equilibration, 2.10 equiv. Trifluoroacetic acid, EA): Clear solution | body weight loss, one mouse (G402 tumor xenografts; 10 mg/kg QD group): over 15% | TGI (G402 tumor xenografts; 30 mg/kg/day oral): 73% | body weight change at end of study, one mouse (G402 tumor xenografts; 50 mg/kg QD group): −17.3% | TGI (G402 tumor xenografts; 50 mg/kg/day oral): 78% | body weight loss, all mice except two (G402 tumor xenografts; 10, 30 or 50 mg/kg daily for 21 days): ≤ 8% | Comments: form after seeding ([3]; 2-MeTHF/110, Heptane/200): for 5 days: Pattern G | Comments: form after seeding ([3]; DCM/200, Heptane/400): Pattern F | Comments: form after seeding ([3]; THF/40, Heptane/160): for 5 days: Pattern G | XRPD ([3]; solvent 1,4-dioxane/200, anti-solvent Heptane/400): Pattern F | Comments ([3]; solvent 2-MeTHF/200, anti-solvent MTBE/200): Oil-like sample | XRPD ([3]; solvent DCM/200, anti-solvent MTBE/400): Pattern F
